Test results: US6020374A, “Biologically active synthetic dye compounds” (priority 1998, dated 2000)

Columns and labels:
[1] = test system: cells; details: apoptosis induced by growth factor deprivation or by drugs such as cycloheximide (CX); cited from earlier work
[2] = test system: IRS-1; assay: IRS-1 tyrosine phosphorylation and association with p85 in FaO cells; type: cell-based, rat; details: 5 mins., EB 200 μg/ml, insulin 600 ng/ml
Protocol: (§1) FIG. 9 is the tyrosine phosphorylation of the IR cascade in Fao cells: A--Immunoblot analysis: Fao cells were deprived of serum for 20 hours, then incubated with EB, ATA, at 200 μg/ml or insulin at 600 ng/ml for 5 mins. Cell extracts were subjected to immunoprecipitation with antibodies to: IR β-subunit (αIR), IRS-1 (αIRS-1) and to IRS-2 (αIRS-2). The immunoprecipitates and total cell extracts were analyzed by SDS-PAGE. Proteins were transferred to nitrocellulose papers, and phosphotyrosine containing proteins were probed with anti-phosphotyrosine antibodies (αP-Tyr), antibody to the 85-kDa subunit of PI3-kinase (αp85) and antibodies to active MAPK (α active MAPK). The immunoblots were visualized by ECL (Amersham).
MCF-7 cells were grown in 35 or 100 mm dishes in DMEM with 5% bovine fetal serum. Rat hepato FaO cells were grown in RPMI 1640 medium supplemented with 10% fetal calf serum. Subconfluent monolayers of MCF-7 cells or FaO cells, were deprived of serum for 20 hours prior to each experiment. The medium was removed, and cells were incubated at 37° C. under the conditions as indicated for each experiment. […]
Nitrocellulose blots of proteins were incubated with the antibodies, and proteins were detected by enhanced chemiluminescence using horseradish peroxidase-labeled protein A, horseradish peroxidase-labeled anti rabbit IgG or horseradish peroxidase-labeled anti-mouse IgG. […]

[3] = test system: MAPKs 1 and 2; assay: Activation of MAPKs in FaO cells; type: cell-based, rat; details: 5 mins., EB 200 μg/ml, insulin 600 ng/ml
Protocol: as §1
Nitrocellulose blots of proteins were incubated with the antibodies, and proteins were detected by enhanced chemiluminescence using horseradish peroxidase-labeled protein A, horseradish peroxidase-labeled anti rabbit IgG or horseradish peroxidase-labeled anti-mouse IgG.
In the rat hepatoma cell line FaO, EB and insulin, enhanced IRS-1 and IRS-2 tyrosine phosphorylation and their association with the 85-kDa regulatory subunit of the PI-kinase (FIG. 9A). PI3-kinase activity increases following its association with IRS-1 and IRS-2 (FIG. 9C). MAPKs 1 and 2 were activated by EB and insulin (FIG. 9A).

[4] = test system: IR, IRS-1 and the 85-kDa regulatory subunit of PI3-kinase; assay: In vivo tyrosine phosphorylation of the IR cascade in rat liver; details: Sprague-Dawley male rats, portal vein injection, EB 20 mg/rat, insulin 1 u/rat
Protocol: A--Immunoblot analysis. Rat liver extracts were subjected to immunoprecipitation and blotting with the indicated antibodies, as described in the legend to FIG. 9A.
(§2) EB (20 mg/rat) or insulin (1 u/rat) was injected into about 120 g weighing Sprague-Dawley male rats, via the portal vein. Control rats were injected with saline (SAL) alone. The rats were killed and the livers excised and frozen in liquid nitrogen at the indicated times.

[5] = test system: PI3-kinase; assay: In vivo PI3-kinase activity in rat liver; details: Sprague-Dawley male rats, portal vein, 5 mins. after injection, EB 20 mg/rat, insulin 1 u/rat
Protocol: B--Induction of PI3-kinase. PI3-kinase activity, 5 mins. after injection was assayed as described in FIG. 9C. The results are representative of 2 to 4 independent experiments.
as §2

[6] = high doses; cited from earlier work

Row | Compound | Protection of cells from apoptosis [1] | IRS-1 tyrosine phosphorylation and association with the 85-kDa regulatory subunit of PI-kinase [2] | Activation of MAPKs 1 and 2 [3] | Tyrosine phosphorylation of IR, IRS-1 and 85-kDa subunit of PI3-kinase in liver [4] | PI3-kinase activity in liver [5] | Toxicity to humans [6]
1 | O=C(O)C1=CC(=C(c2ccc(O)c(C(=O)O)c2)c2ccc(O)c(C(=O)O)c2)C=CC1=O [ATA, Aurintricarboxylic acid] | protect cells from apoptosis |  |  |  |  | 
2 | Cc1cc(-c2ccc(N=Nc3ccc4c(S(=O)(=O)O)cc(S(=O)(=O)O)c(N)c4c3O)c(C)c2)ccc1N=Nc1ccc2c(S(=O)(=O)O)cc(S(=O)(=O)O)c(N)c2c1O [EB, Evan's Blue] |  | enhanced | activated | phosphorylated tyrosines of IR, IRS-1 and the 85-kDa of the regulatory subunit of PI3-kinase | increased | non-toxic to humans at high doses
